Data set [1] concerns CpG-ODN effect on thymidine uptake by WEHI 231 B-cells. Nature of the data set: Inhibition of CpG-ODN effect on thymidine uptake by WEHI 231 B-cells treated with anti-surface IgM. The class given is cell-based, murine. An excerpt: The ability of analogs to inhibit an immunostimulatory effect of CpG-ODN was examined. This assay measures the reversal of the protection by CpG-ODN against surface IgM induced killing of WEHI 231 cells.

Data set [2] has as its system WEHI 231 cells. Particulars: 1 μM.
In the next data set the test system is CpG ODN 1760. Nature of the data set: DNA thermal melting at 260 nm. The class given is binding. Particulars: 0.3 moles of compound per base, MES with 150 mM KCl, pH 4.4. The protocol: Thermal melting studies were conducted at 260 nm with a Cary spectrophotometer interfaced to a microcomputer. A thermistor fixed into a reference cuvette was used to monitor the temperature. The DNA oligomer was added to 1 mL of buffer (MES with 150 mM KCl, pH 4.4) in 1 cm path length reduced-volume quartz cells. Studies were generally conducted a at concentration of 5×10-^5M bases. […].
Structural nucleic acids with duplex or single-stranded folded conformations generally give sigmoid thermal melting curves characteristic of thermal unfolding of the structures. This unfolding results in a change in the UV spectrum. […]

The subject of data set [3] is WEHI 231 cells. Put plainly: Uptake of Texas Red-labeled CpG-ODN 1760 by flow cytometry. It counts as cell-based, murine. Particulars: 5 ug/ml Texas Red CpG-ODN 1760. As to the method: FIG. 6. […] The cells were then washed three times, and fixed. The cellular uptake of fluorescent CpG-ODN was estimated by flow cytometry. […] .
After incubation with the additions indicated, the cells were centrifuged and resuspended three times into Hanks buffered salt solution at 37° to remove surface bound ODN, and then resuspended and fixed in 2% paraformaldehyde for analysis in the University of-Iowa Flow Cytometry Facility. 10,000 events were recorded using a Coulter EPICS 753 at 488/600 nm, gating out dead cells. The mean cellular fluorescence was recorded.
The effect of chloroquine and non-fluorescent analogs on the uptake of Texas Red-labeled CpG-ODN 1760 was investigated. […] . Flow cytometry measures cell-associated fluorescence because signals derived from dead cells (which take up ODN avidly, (Tonkinson and Stein, 1994)) are easily gated out of the analysis.

The test system of data set [4] is WEHI 231 cells. Put plainly: Confocal microscopy of subcellular distribution of internalized CpG-ODN.
For data set [5] the following is noted: experimental, ring nitrogen of the quinoline; taken from Strekowski et al., J Med. Chem. 1996; cited from earlier work.
The next data set concerns duplex DNA. Particulars: cited from earlier work.
The test system of the next data set is quadruplex DNA. Nature of the data set: Quadruplex DNA stabilization. The class given is binding. From the text: Since nucleic acids are involved and several compounds of this study have been shown previously to strongly stabilize a triple-helix DNA structure, it was hypothesized initially that stabilization of the triple helix complex is part of the mechanism. […] In addition, compound 1 binds weakly to RNA (Wilson et al., 1993).

The subject of the next data set is triple-helix DNA. Particulars: cited from earlier work.
For the next data set, the system named is RNA. The note with it: cited from earlier work.
The test system of data set [6] is WEHI 231 cells. Nature of the data set: Monensin effect on cellular concentration of quinacrine. It counts as cell-based, murine. The note with it: Mus musculus, WEHI231, 0.5 h; 1 uM quinacrine, 30 min; read-out: Monensin concentration for half maximal inhibition of quinacrine uptake and loss of quinacrine from preloaded cells. As to the method:
FIG. 5. Monensin: Cells were incubated with 1 uM quinacrine 17 or compound 227 for 30 min. Monensin at the indicated concentration was added either at the same time as the analog or at the end of the 30 min incubation, and the cellular concentration of the analog was determined by fluorescence.
Both effects were half maximal at a monensin concentration of about 1 μM (FIG. 5). Similar results were obtained with other analogs.

Setting [7] is: concentration required for 50% blockage of the ability of CpG-ODN to rescue WEHI 231 cells from anti-surface IgM-induced cell death, read-out: 50% Efficacy.
Setting [8] is: concentration for half-maximal inhibition of CpG-ODN effect on thymidine uptake by WEHI 231 B-cells in presence of anti-sIgM, estimated experimental error ± 15%, read-out: EC50.
Where [9] appears, read: Mus musculus, WEHI231, concentration for half-maximal inhibition of CpG-ODN effect on thymidine uptake by WEHI 231 B-cells in presence of anti-sIgM, estimated experimental error ± 15%, read-out: EC50.
The mark [10] stands for this setting: Mus musculus, WEHI231, concentration required for 50% blockage of the ability of CpG-ODN to rescue WEHI 231 cells from anti-surface IgM-induced cell death, read-out: 50% Efficacy.

Each structure is given as a SMILES string. Read-outs that look alike come from different tables or passages of the source. A value given as a limit tells only on which side of the number the result lay.

As usually defined, the pKa is the pH at which an ionisable group is half protonated.

Consider `CN(C)CCNc1cc(-c2ccc3ccccc3c2)nc2ccccc12` [LS-8], for which the EC50 in data set [1] (setting [7]) worked out at 9.5 nM. For `CN(C)CCCNc1ccnc2ccccc12` [Compound 11], in [1] (setting [8]), the EC50 is 4400 nM. On the same count and under the same terms, under `O=C(CCCO)NCCCN1CCN(CCCNc2cc(-c3ccc4ccccc4c3)nc3ccccc23)CC1` [Compound 25] stands 25.1 nM; under `OCCc1ccc(Nc2cc(-c3ccc4ccccc4c3)nc3ccccc23)cc1` [Compound 27], 510 nM; under `CC(C)(C)OC(=O)NCCNc1cc(-c2ccc3ccccc3c2)nc2ccccc12` [Compound 20], 570 nM. Regarding `Oc1c(CN2CCCCC2)cc(Nc2cc(-c3ccc4ccccc4c3)nc3ccccc23)cc1CN1CCCCC1` [Compound 30], the EC50 in [1] (setting [9]) was 1.5 nM. For `CCCCc1ccc(Nc2cc(-c3ccc4ccccc4c3)nc3ccccc23)cc1` [Compound 26], in data set [1] (setting [8]), the EC50 was above 10000 nM. Regarding `CN(C)CCCCCCNc1cc(-c2ccc3ccccc3c2)nc2ccccc12` [OZ-123], in data set [1] (setting [7]), the EC50 came out at 5.9 nM. As to `Cc1ccc(-c2cc(NCCN(C)C)c3ccccc3n2)cc1` [Compound 4], the EC50 in data set [1] (setting [8]) is 12.3 nM. With `CN(C)CCNc1cc(-c2ccc(C(F)(F)F)cc2)nc2ccccc12` [Compound 6], the EC50 in [1] (setting [8]) was 155 nM. Turning to `CCN(CC)CCCC(C)Nc1ccnc2cc(Cl)ccc12` (centres unmarked) [Chloroquine, chloroquine], the “Increase in the pH of CpG-ODN-containing compartment” value with WEHI 231 cells [2] is recorded as “less than 0.01 pH units”. For the same molecule, in the data set with CpG ODN 1760, the “Change in the thermal melting curve of the free CpG-ODN” value is “did not cause any significant change”. Moreover, the “Influence on CpG-ODN uptake” value in the data set with WEHI 231 cells [3] is “no significant influence”. Also, in [1] (1 μM), the “Suppression of CpG-ODN responses” value is given as “completely suppresses”. Further, in the data set on WEHI 231 cells [4], the “Influence on subcellular distribution of internalized CpG-ODN” value is reported as “did not influence”.

With `CN(C)CCNc1cc(/C=C/c2ccccc2)nc2ccccc12` [Compound 5], in [1] (setting [8]), the EC50 is 6.5 nM. Regarding `Oc1c(CN2CCOCC2)cc(Nc2cc(-c3ccc4ccccc4c3)nc3ccccc23)cc1CN1CCOCC1` [Compound 29], in [1] (setting [9]), the EC50 was 10 nM. Turning to `C=C[C@H]1C[N@@]2CC[C@H]1C[C@H]2[C@H](O)c1ccnc2ccc(OC)cc12` [Quinine, reference compound], in [1] (setting [10]), the EC50 was 23000 nM.

Consider `Oc1ccc(Nc2cc(-c3ccc4ccccc4c3)nc3ccccc23)cc1` [Compound 28], for which the EC50 in data set [1] (setting [9]) is 320 nM. With `CC(Nc1cc(-c2ccc3ccccc3c2)nc2ccccc12)C(O)c1ccccc1` (centres unmarked) [Compound 22], the EC50 in data set [1] (setting [8]) is 1000 nM. For the molecule `Cc1ccc(-c2cc(NCCCN(C)C)c3ccccc3n2)cc1` [Compound 12], the EC50 in [1] (setting [8]) is 11.5 nM. Take `CN(C)CCCCCCNc1cc(-c2ccc3ccccc3c2)nc2ccccc12` [Compound 16]: the EC50 in data set [1] (setting [8]) was 5.9 nM. Turning to `CN(C)CCN(C)c1cc(-c2ccc3ccccc3c2)nc2ccccc12` [Compound 7], the pKa in [5] was 6.2. Further, in data set [1] (setting [8]), the EC50 is 416 nM.

Take `COc1ccc2nc3cc(Cl)ccc3c(NC3CCCCC3Nc3c4ccc(Cl)cc4nc4ccc(OC)cc34)c2c1` (racemic) [Ism 16]: the EC50 in data set [1] (setting [7]) was 14.5 nM.

`CN(C)CCNC(=O)c1cc(-c2ccc3ccccc3c2)nc2ccccc12` [Compound 10]: the pKa in [5] is recorded as 2.9. Besides, in data set [1] (setting [8]), the EC50 is above 10000 nM.

As for `CCN(CCO)CCCC(C)Nc1ccnc2cc(Cl)ccc12` (centres unmarked) [Hydroxychloroquine, reference compound], in [1] (setting [10]), the EC50 is 407 nM. With `CN(C)CCCNc1cc(-c2ccc3ccccc3c2)nc2ccccc12` [Compound 13], in data set [1] (setting [8]), the EC50 was 11 nM.

In the case of `OCCCCCCNc1cc(-c2ccc3ccccc3c2)nc2ccccc12` [Compound 24], the EC50 in data set [1] (setting [8]) is 170 nM. Regarding `CN(C)CCNc1cc(-c2cccc3ccccc23)nc2ccccc12` [Compound 3], the “Binding to duplex DNA” value in the data set with duplex DNA was “does not bind at all”. Besides, in the data set with quadruplex DNA, the “Stabilization of quadruplex DNA” value is on record as “do not stabilize”. Besides, the “Triplex DNA stabilization / binding” value with triple-helix DNA was “does not promote triplex DNA formation and does not bind to the triple DNA structure”. Besides, in [1] (setting [8]), the EC50 was 39.8 nM.

With `CC(CCCC(C)(C)O)Nc1cc(-c2ccc3ccccc3c2)nc2ccccc12` (centres unmarked) [Compound 21], the EC50 in [1] (setting [8]) is 1150 nM.

On to `CN(C)CCCCNc1cc(-c2ccc3ccccc3c2)nc2ccccc12` [Compound 15], for which, in data set [1] (setting [8]), the EC50 was 4 nM. Take `COc1ccc2nc3cc(Cl)ccc3c(NC3CCCCC3Nc3ccnc4cc(Cl)ccc34)c2c1` (racemic) [Ism 9]: the EC50 in data set [1] (setting [7]) came out at 105 nM. For the molecule `CN(C)CCNc1cc(-c2ccc3ccc4ccccc4c3c2)nc2ccccc12` [Compound 2], the EC50 in data set [1] (setting [8]) was 11 nM. As for `CN1CCN(Cc2cc(Nc3cc(-c4ccc5ccccc5c4)nc4ccccc34)cc(CN3CCN(C)CC3)c2O)CC1` [Compound 32], in data set [1] (setting [9]), the EC50 is 0.24 nM. As for `CCN(CC)CCCC(Nc1c2ccc(Cl)cc2nc2ccc(OC)cc12)c1ccncc1` (centres unmarked) [10591-T/2, reference compound], in data set [1] (setting [7]), the EC50 turned out to be 30.2 nM. Take `CN(C)CCNc1cc(-c2ccc3ccccc3c2)nc2ccccc12` [Compound 1]: in the data set on RNA, the “Binding to RNA” value is reported as “binds weakly”. The “Binding to duplex DNA” value with duplex DNA is “binds weakly”. In addition, the “Stabilization of quadruplex DNA” value in the data set on quadruplex DNA is on record as “do not stabilize”. Besides, in data set [5], the pKa is given as 7.1. For the same molecule, in the data set with triple-helix DNA, the “Triplex DNA stabilization / binding” value is on record as “one of the best triplex DNA stabilizing agents known to date”. Moreover, the EC50 in data set [1] (setting [8]) is 9.1 nM.

Turning to `Oc1c(CN2CCCC2)cc(Nc2cc(-c3ccc4ccccc4c3)nc3ccccc23)cc1CN1CCCC1` [Compound 31], the EC50 in [1] (setting [9]) was 1.2 nM. Regarding `CC[C@@]1([C@@H]2O[C@@H]([C@H]3O[C@@](O)(CO)[C@H](C)C[C@@H]3C)C[C@@H]2C)CC[C@H]([C@]2(C)CC[C@]3(C[C@H](O)[C@@H](C)[C@@H]([C@@H](C)[C@@H](OC)[C@H](C)C(=O)O)O3)O2)O1` [Monensin], in the data set on WEHI 231 cells [6], the EC50 was around 1000 nM.

Regarding `CN(C)CCCCNc1ccnc2ccccc12` [Compound 14], in data set [1] (setting [8]), the EC50 is 316 nM.

Turning to `OCCOCCNc1cc(-c2ccc3ccccc3c2)nc2ccccc12` [Compound 23], the EC50 in [1] (setting [8]) was 330 nM. In the case of `CN(C)CCSc1cc(-c2ccc3ccccc3c2)nc2ccccc12` [Compound 9], the pKa in data set [5] is listed as 4.4. For the same molecule, the EC50 in [1] (setting [8]) is 2400 nM. Consider `CCCCN(CCCC)CCCNc1cc(-c2ccc3ccccc3c2)nc2ccccc12` [MHQ-6], for which the EC50 in data set [1] (setting [7]) was found to be 16.3 nM.

These data come from patent US6479504B1, “Antagonism of immunostimulatory CpG-oligonucleotides by 4-aminoquinolines and other weak bases” (The University of Iowa Research Foundation, priority 1999, dated 2002).
